Experimental findings from US7273880B2, “Selective NPY (Y5) antagonists” (H. Lunbeck A/S, priority 1999, dated 2007) are described below.

Counter-ions that a name gives are not always drawn.

Series [1] concerns the target T1, human Y5 receptor (hNPY-5) (Homo sapiens, UniProt Q15761).
T1 construct: expressed in transfected cells; host or cells: mouse fibroblast LM(tk-) cells, e.g. L-hY5-7 (ATCC CRL-11995)
T1 sequence (Q15761 1-445): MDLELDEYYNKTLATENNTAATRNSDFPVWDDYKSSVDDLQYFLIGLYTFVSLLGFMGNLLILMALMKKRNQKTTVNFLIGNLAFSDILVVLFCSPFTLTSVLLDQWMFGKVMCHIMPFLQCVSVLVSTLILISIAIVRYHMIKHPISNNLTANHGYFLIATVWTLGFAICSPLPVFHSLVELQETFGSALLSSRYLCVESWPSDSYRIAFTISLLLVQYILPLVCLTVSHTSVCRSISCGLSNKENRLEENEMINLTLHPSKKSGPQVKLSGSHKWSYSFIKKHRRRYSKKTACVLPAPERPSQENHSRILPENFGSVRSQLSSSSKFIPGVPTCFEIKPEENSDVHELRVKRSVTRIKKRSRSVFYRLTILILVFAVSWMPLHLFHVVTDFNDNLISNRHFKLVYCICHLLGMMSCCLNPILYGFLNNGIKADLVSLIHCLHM
Description: Radioligand binding to membranes, cloned human Y5 receptor. The following applies: cloned human NPY Y5 receptor, radioligand competition binding; Tables 1-3; read-out: Ki, nM hNPY-5. In short, it runs like this: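 Competition binding on membranes from stably transfected 293 or LM(tk-) cells, with 0.08 nM ¹²⁵I-PYY in pH 7.4 HEPES buffer plus 0.1% BSA, 120 min at 30 °C, filtration and counting. Nonspecific binding defined by 300 nM human NPY, or 100 nM human PP for Y4; nonlinear regression.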
(Displacement assays read how much labelled ligand stays bound in the presence of the test substance.)

As for `COc1ccc2c(c1)OCCc1sc(NC[C@H]3CC[C@H](NS(C)(=O)=O)CC3)nc1-2` [Example 61, trans-1-Aza-4,5-dihydro-8-methoxy-2-{4-methyl-sulfonyl-amino)cyclohexylmethylamino-6-oxa-3-thia-benzo [e]azulene], the melting point (in general, the temperature, or range, at which the solid turns liquid) lay within 65 to 70 °C. Further, in series [1], the Ki (usually the dissociation constant of the complex between target and ligand, obtained from inhibition or displacement) was 162 nM. For `COc1ccc2c(c1)CCCc1sc(N[C@H]3CC[C@H](CNS(C)(=O)=O)CC3)nc1-2` [Example 72, trans-1-Aza-4,5-dihydro-8-methoxy-2-(4-methyl-sulfonylamino-methyl)cyclohexylamino-3-thia-benzo[e]azulene], the melting point was in the range of 224 to 225 °C. The Ki in series [1] worked out at 22 nM. For `CCCN(C=O)C[C@H]1CC[C@H](Nc2nc3c(s2)CCOc2ccccc2-3)CC1` [Example 85, N-{[4-(4,5-Dihydrobenzo[2,3]oxepino[4,5-d][1,3]-thiazol-2-ylamino)cyclohexyl]methyl}-N-propylformamide], in that order: 53 to 55 °C and 150 nM. The corresponding values for `CCS(=O)(=O)N[C@H]1CC[C@H](CNc2nc3c(s2)CCOc2cc(OC)ccc2-3)CC1` [Example 60, trans-N2-(4-Ethylsulfonylamino)cyclohexylmethyl-8-methoxy-4,5-dihydro-benzo[2,3]oxepino[4,5-d][1,3]thiazol-2-amine] are 170 to 172 °C and 31 nM.

On to `COc1ccc(C)cc1S(=O)(=O)NCCCCC(=O)Nc1nc2c(s1)CCCc1ccc(F)cc1-2` [Example 49, N1-(9-Fluoro-5,6-dihydro-4H-benzo[6,7]cyclohepta-[d][1,3]-thiazol-2-yl)-5-[(2-methoxy-5-methylphenyl)-sulfonyl]-aminopentanamide], for which the melting point lay in the range of 70 to 75 °C. Also, in series [1], the Ki was found to be 2.9 nM. As for `COc1ccc2c(c1)CCCc1sc(N[C@H]3CC[C@H](CNS(=O)(=O)N4CCOCC4)CC3)nc1-2` (as salt: hydrochloride) [Example 78, trans-N2-(4-(1-Morpholinylsulfonylaminomethyl)-cyclohexyl-8-methoxy-5,6-dihydro-4H-benzo[6,7]-cyclohepta[d][1,3]thiazol-2-amine hydrochloride], the melting point is 130 to 132 °C. Consider `COCC(=O)NCc1ccc(Nc2nc3c(s2)CCCc2ccc(F)cc2-3)cc1` (as salt: HCl) [Example 89, N1-{4-[(9-fluoro-5,6-dihydro-4H-benzo[6,7]cyclohepta-[d][1,3]thiazol-2-yl)amino]benzyl}-2-methoxyacetamide], for which the melting point fell in the range of 175 to 178 °C. Compound `O=S(=O)(NCCCCNc1nc2c(s1)CCCc1ccc(F)cc1-2)c1cccnc1` (as salt: salt) [Example 56, 1-Aza-9-fluoro-4,5-dihydro-2-(4-(3-pyridyl)sulfonyl-amino)butylamino-3-thia-benzo[e]azulene] showed a melting point of 101 to 103 °C. `CCS(=O)(=O)N[C@H]1CC[C@H](CNc2nc3c(s2)CCOc2ccc(OC)cc2-3)CC1` [Example 64, trans-N2-(4-Ethylsulfonylamino)cyclohexylmethyl-9-methoxy-4,5-dihydro-benzo[2,3]oxepino[4,5-d][1,3]thiazol-2-amine] returned a melting point of 165 to 170 °C. For the same compound, the Ki in series [1] came out at 12.2 nM.

`CS(=O)(=O)NCc1ccc(Nc2nc3c(s2)CCCc2ccc(F)cc2-3)cc1` [Example 90, N-{4-[(9-Fluoro-5,6-dihydro-4H-benzo[6,7]cyclohepta-[d][1,3]thiazol-2-yl)amino]benzyl}methanesulfonamide] yielded a melting point of 148 to 150 °C. Also, in series [1], the Ki came out at 5.7 nM. As to `COc1ccc(C)cc1S(=O)(=O)N[C@H]1CC[C@H](CNc2nc3c(s2)CCOc2ccccc2-3)CC1` [Example 51, trans-1-Aza-4,5-dihydro-2-{4-(2-methoxy-5-methyl-phenyl)-sulfonylamino}cyclohexylmethylamino-6-oxa-3-thia-benzo[e]azulene], the melting point lay in the range of 220 to 224 °C. Besides, in series [1], the Ki was 8.3 nM.

Compound `COc1ccc(C)cc1S(=O)(=O)NCCOCCNc1nc2c(s1)CCCc1ccc(F)cc1-2` (as salt: HCl) [Example 58, 1-Aza-9-fluoro-4,5-dihydro-2-{2-[2-(2-methoxy-5-methylphenyl)sulfonylamino]ethoxy}ethylamino-3-thia-benzo[e]azulene] had a melting point of 56 to 60 °C. Still for that read-out and setting: to `CC(C)S(=O)(=O)NCCOCCNc1nc2c(s1)CCCc1ccc(F)cc1-2` (as salt: HCl) [Example 69, 1-Aza-9-fluoro-4,5-dihydro-2-(2-(2-isopropyl-sulfonylamino)-ethoxy)ethylamino-3-thia-benzo[e]-azulene] belongs 50 to 55 °C; to `O=S(=O)(NCCCCCNc1nc2c(s1)CCCc1ccc(F)cc1-2)c1ccccc1F` (as salt: HCl) [Example 3, 1-Aza-9-fluoro-2-(5-(2-fluorophenyl)sulfonylamino)-pentylamino-4,5-dihydro-3-thia-benzo[e]azulene], 55 to 57 °C; to `CC(C)N(C=O)C[C@H]1CC[C@H](Nc2nc3c(s2)CCCc2ccc(F)cc2-3)CC1` (as salt: salt) [Example 83, trans-1-Aza-9-fluoro-4,5-dihydro-2-(4-(N-isopropyl-formamido)methyl)cyclohexylamino-3-thia-benzo[e]-azulene], 106 to 107 °C. The same measure, in the same setting: to `O=C1OCCN1C[C@H]1CC[C@H](Nc2nc3c(s2)CCCc2ccc(F)cc2-3)CC1` (as salt: HCl) [Example 79, 3-({4-[(9-fluoro-5,6-dihydro-4H-benzo[6,7]cyclohepta-[d][1,3]thiazol-2-yl)amino]cyclohexyl}methyl)-1,3-oxazolan-2-one] belongs 223 to 225 °C. The same measure, in the same setting: to `COc1cccc2c1OCCc1sc(NC[C@H]3CC[C@H](NS(C)(=O)=O)CC3)nc1-2` (as salt: hydrochloride) [Example 65, trans-N2-(4-Methylsulfonylamino)cyclohexylmethyl-7-methoxy-4,5-dihydro-benzo[2,3]oxepino[4,5-d][1,3]-thiazol-2-amine hydrochloride] belongs 225 to 230 °C. As for `CCCN(C=O)[C@H]1CC[C@H](CNc2nc3c(s2)CCOc2ccccc2-3)CC1` (as salt: HCl) [Example 88, N-{4-[(4,5-Dihydrobenzo[2,3]oxepino[4,5-d][1,3]-thiazol-2-ylamino)methyl]cyclohexyl}-N-propyl-formamide], the melting point lay in the range of 195 to 197 °C.

For the compound `CCOC(=O)N[C@H]1CC[C@H](CNc2nc3c(s2)CCCc2ccc(F)cc2-3)CC1` (as salt: hydrochloride) [Example 68, trans-N2-(4-Ethoxycarbonylamino)cyclohexylmethyl-9-fluoro-5,6-dihydro-4H-benzo[6,7]cyclohepta[d][1,3]-thiazol-2-amine hydrochloride], the melting point fell in the range of 94 to 97 °C. `CS(=O)(=O)NCCOCCNc1nc2c(s1)CCCc1ccc(F)cc1-2` [Example 57, 1-Aza-9-fluoro-4,5-dihydro-2-{2-(2-methylsulfonyl-amino)ethoxy}ethylamino-3-thia-benzo[e]azulene] registered a melting point of 159 to 162 °C. Moreover, in series [1], the Ki was determined as 66 nM. Compound `CS(=O)(=O)NCC1CCC(Nc2nc3c(s2)COc2ccccc2-3)CC1` (centres unmarked) (as salt: salt) [Example 70, 2-(4-Methylsulfonylaminomethyl)cyclohexylamino-4H-chromeno[4,3-d]thiazole] showed a melting point of 140 to 144 °C. Consider `O=S(=O)(N[C@H]1CC[C@H](CNc2nc3c(s2)CCCc2ccc(F)cc2-3)CC1)c1cccnc1` [Example 62, trans-1-Aza-9-fluoro-4,5-dihydro-2-{4-(3-pyridyl)sulfonylamino}cyclohexylmethylamino-3-thia-benzo[e]azulene], for which the melting point lay in the range of 158 to 160 °C. For the same compound, in series [1], the Ki came out at 1.8 nM.

The compound `COc1ccc2c(c1)-c1nc(NC[C@H]3CC[C@H](NS(C)(=O)=O)CC3)sc1CCO2` (as salt: HCl) [Example 63, trans-1-Aza-4,5-dihydro-9-methoxy-2-{4-methylsulfonyl-amino}cyclohexylmethylamino-6-oxa-3-thia-benzo[e]azulene] gave a melting point of 200 to 215 °C.

On to `CCN(C=O)[C@H]1CC[C@H](CNc2nc3c(s2)CCOc2ccccc2-3)CC1` (as salt: HCl) [Example 87, trans-1-Aza-2-(4-(n-(ethyl) formamido)cyclohexyl)methyl-amino-4,5-dihydro-6-oxa-3-thia-benzo[e]azulene], for which the melting point is 210 to 213 °C. Still for that read-out and setting: then `COCC(=O)NC[C@H]1CC[C@H](Nc2nc3c(s2)CCCc2ccc(F)cc2-3)CC1` (as salt: HCl) [Example 80, N1-({4-[(9-fluoro-5,6-dihydro-4H-benzo[6,7]-cyclohepta-[d][1,3]thiazol-2-yl)amino]cyclohexyl}-methyl)-2-methoxyacetamide], with 63 to 65 °C.
